The values that follow come from US5990276A, “Synthetic inhibitors of hepatitis C virus NS3 protease” (Schering Corporation, priority 1997, dated 1999).

Square brackets hold non-standard residues; d marks the D form. Peptide text beside a SMILES is read from it. * marks the point of attachment. Biotin = O=C1N[C@H]2[C@H](CS[C@H]2CCCCC(=O)*)N1

In this assay the target is T1, HCV NS3 protease (Hepatitis C virus genotype 1a, UniProt P27958).
T1 construct: HT (hydrophilic solubilizing tail) (C); made in house; host or cells: E. coli M15 [pREP4]
T1 sequence (P27958 1028-1209): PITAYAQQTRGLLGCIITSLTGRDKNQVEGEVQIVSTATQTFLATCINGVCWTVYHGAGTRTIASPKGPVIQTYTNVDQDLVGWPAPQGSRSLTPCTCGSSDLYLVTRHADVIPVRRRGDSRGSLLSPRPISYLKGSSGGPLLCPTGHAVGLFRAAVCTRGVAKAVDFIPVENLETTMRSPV
Nature of the assay: HPLC assay of inhibition of HCV NS3 protease cleavage of the 5A/5B substrate. Conditions: Example 2; separate method not given; read-out: IC50, monovalent inhibitors of the HCV NS3 protease. The assay is classed as biochemical. As to the method:
Into an aqueous solution containing 25 mM TRIS, 50 mM NaCl, 0.5 mM EDTA, 10% glycerol and 0.1% NP40 was placed the potential inhibitor, the HCV NS3 protease at a concentration of 0.05 μM-[…], the HCV NS4A cofactor at a concentration of 0.05 μM-0.1 μM and the 5A/5B substrate at a concentration of 50 μM. This solution was then incubated for approximately 2 hours at 30° C. after which the solution was applied to an HPLC to determine if the 5A/5B remained intact and thus the compound was determined to be an inhibitor. […] The potential inhibitors were assayed at several different concentrations to determine the concentration which produced 50% inhibition of the HCV NS3 protease.
As a reminder, the IC50 is the concentration that inhibits the measured activity by half. Consider `CC[C@@H](C)[C@@H](NC(=O)[C@H](NC(=O)[C@@H](CC(C)C)NC(=O)[C@@H](CO)NC(=O)CNC(=O)[C@@H](CCCCN)NC(C)=O)C(C)C)C(=O)N[C@H](CCCNC(=N)N)C(=O)NCC(=O)N[C@@H](C(=O)N[C@@H](C(=O)N[C@@H](C(=O)N[C@@H](C(=O)N[C@H](CS)C(N)=O)C(C)C)C(C)C)[C@H](C)CC)C(C)C` [SEQ ID NO.: 13, Lys-Gly-Ser-Leu-Val-Ile-Arg-Gly-Val-Ile-Val-Val-Cys], for which the half-inhibitory concentration (IC50) turned out to be 2000 nM.

As to `CC[C@@H](C)[C@@H](NC(=O)[C@H](NC(=O)[C@@H](CC(C)C)NC(=O)[C@@H](CO)NC(=O)CNC(=O)[C@@H](CCCCN)NC(=O)CCCC[C@@H]1SC[C@@H]2NC(=O)N[C@@H]21)C(C)C)C(=O)N[C@H](CCCNC(=N)N)C(=O)NCC(=O)N[C@@H](C(=O)N[C@@H](C(=O)N[C@@H](C(=O)N[C@@H](C(=O)N[C@H](CS)C(=O)N[C@@H](CCCCN)C(=O)N[C@@H](CCCCN)C(=O)O)C(C)C)C(C)C)[C@H](C)CC)C(C)C` [SEQ ID NO.: 14, Xaa-Lys-Gly-Ser-Leu-Val-Ile-Arg-Gly-Val-Ile Val-Val-Cys-Lys-Lys] (Biotin-[dK]G[dS][dL][dV][dI][dR]G[dV][dI][dV][dV][dC]KK-OH), the IC50 turned out to be 400 nM.

Regarding `CC[C@@H](C)[C@@H](NC(=O)[C@H](NC(=O)[C@@H](CC(C)C)NC(=O)[C@@H](CO)NC(C)=O)C(C)C)C(=O)N[C@H](CCCNC(=N)N)C(=O)NCC(=O)N[C@@H](C(=O)N[C@@H](C(=O)N[C@@H](C(N)=O)C(C)C)[C@H](C)CC)C(C)C` [SEQ ID NO.: 12, Ser-Leu-Val-Ile-Arg-Gly-Val-Ile-Val], the IC50 is 600 nM.
